Data reported in ChEMBL document CHEMBL3421602, “Small molecule discoidin domain receptor kinase inhibitors and potential medical applications” (J Med Chem, 2015).
One block for each molecule: values may come before it. Numbered stars: 1 amine (or outer) side, 2 acyl side, 3 side chain; on linkers, the order of the positions; unused ones are H or OH. Bridge positions count the residues as written; N and C are the ends. Square brackets hold non-standard residues; d marks the D form. Peptide text beside a SMILES is read from it. I, II: the chains in the order shown. Actinocin(9to1) = Cc1c2oc3c(C)ccc(C(=O)[*:1])c3nc-2c(C(=O)[*:2])c(N)c1=O; NMeV = CN[C@H](C(=O)O)C(C)C; Sar = CNCC(=O)O

What was measured:
[1] = molecular target: T1, Discoidin domain-containing receptor 2 (Homo sapiens, UniProt Q16832); assay: Inhibition of recombinant activated DDR2 tyrosine kinase domain (unknown origin) using histone H2B peptide substrate and [32P]ATP incubated for 15 mins
T1 sequence (Q16832 whole entry): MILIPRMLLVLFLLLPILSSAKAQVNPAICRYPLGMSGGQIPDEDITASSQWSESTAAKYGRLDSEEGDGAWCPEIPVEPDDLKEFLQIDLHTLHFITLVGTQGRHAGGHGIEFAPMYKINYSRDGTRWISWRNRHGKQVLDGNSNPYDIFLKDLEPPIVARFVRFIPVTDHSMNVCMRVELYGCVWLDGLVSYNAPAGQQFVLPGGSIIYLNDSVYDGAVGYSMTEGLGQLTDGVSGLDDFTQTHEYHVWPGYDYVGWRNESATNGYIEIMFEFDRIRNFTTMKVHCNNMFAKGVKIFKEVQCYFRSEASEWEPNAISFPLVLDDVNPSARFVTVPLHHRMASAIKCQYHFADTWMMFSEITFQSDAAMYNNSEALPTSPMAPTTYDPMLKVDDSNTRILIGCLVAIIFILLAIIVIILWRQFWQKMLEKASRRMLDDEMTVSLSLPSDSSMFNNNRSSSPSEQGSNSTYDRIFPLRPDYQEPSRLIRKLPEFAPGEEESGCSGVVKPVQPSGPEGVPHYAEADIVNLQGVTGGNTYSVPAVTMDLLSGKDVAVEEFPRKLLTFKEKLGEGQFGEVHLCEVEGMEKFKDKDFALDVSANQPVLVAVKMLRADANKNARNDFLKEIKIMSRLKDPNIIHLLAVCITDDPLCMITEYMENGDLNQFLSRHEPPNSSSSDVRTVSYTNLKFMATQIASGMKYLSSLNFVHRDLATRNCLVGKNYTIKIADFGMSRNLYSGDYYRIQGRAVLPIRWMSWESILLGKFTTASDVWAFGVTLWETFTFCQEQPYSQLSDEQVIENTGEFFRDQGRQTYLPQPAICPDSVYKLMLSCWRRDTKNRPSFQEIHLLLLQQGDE

[2] = molecular target: T1, Discoidin domain-containing receptor 2; assay: Inhibition of recombinant non-activated DDR2 tyrosine kinase domain (unknown origin) using histone H2B peptide substrate and [32P]ATP incubated for 15 mins
[3] = molecular target: T1, Discoidin domain-containing receptor 2; assay: Binding affinity to DDR2 (unknown origin) by active-site dependent competition binding assay
[4] = molecular target: T2, Epithelial discoidin domain-containing receptor 1 (Homo sapiens, UniProt Q08345); assay: Inhibition of human DDR1 kinase domain (601 to 913 residues) expressed in Sf9 cells by enzymatic kinase assay
T2 sequence (Q08345 whole entry, the tested form may be a part): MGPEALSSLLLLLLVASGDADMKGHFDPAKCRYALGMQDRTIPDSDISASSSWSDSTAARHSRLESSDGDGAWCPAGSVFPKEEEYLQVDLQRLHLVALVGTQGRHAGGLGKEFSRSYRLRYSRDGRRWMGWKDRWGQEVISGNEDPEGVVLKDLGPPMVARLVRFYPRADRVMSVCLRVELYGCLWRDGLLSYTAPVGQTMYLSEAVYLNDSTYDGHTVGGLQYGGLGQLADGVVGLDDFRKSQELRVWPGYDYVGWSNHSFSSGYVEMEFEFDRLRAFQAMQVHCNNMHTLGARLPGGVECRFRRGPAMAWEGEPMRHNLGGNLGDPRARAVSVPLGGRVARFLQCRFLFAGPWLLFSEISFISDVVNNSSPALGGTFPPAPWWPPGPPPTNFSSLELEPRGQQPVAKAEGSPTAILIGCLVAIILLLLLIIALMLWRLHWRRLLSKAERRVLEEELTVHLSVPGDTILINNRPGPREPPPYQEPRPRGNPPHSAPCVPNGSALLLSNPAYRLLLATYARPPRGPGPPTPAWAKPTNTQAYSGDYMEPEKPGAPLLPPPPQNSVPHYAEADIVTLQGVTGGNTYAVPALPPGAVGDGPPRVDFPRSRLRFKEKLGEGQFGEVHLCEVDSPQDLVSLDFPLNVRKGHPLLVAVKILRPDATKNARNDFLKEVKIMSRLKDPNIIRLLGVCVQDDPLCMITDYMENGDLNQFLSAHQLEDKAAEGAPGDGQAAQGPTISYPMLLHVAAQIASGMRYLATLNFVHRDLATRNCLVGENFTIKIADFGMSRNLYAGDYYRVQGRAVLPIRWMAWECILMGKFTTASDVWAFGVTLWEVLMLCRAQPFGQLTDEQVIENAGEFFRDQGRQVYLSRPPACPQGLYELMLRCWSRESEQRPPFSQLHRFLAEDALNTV

[5] = molecular target: T2, Epithelial discoidin domain-containing receptor 1; assay: Inhibition of human DDR1 in doxycycline-stimulated human U2OS cells assessed as inhibition of collagen-1-induced autophosphorylation incubated for 1 hr; format: cell-based
U2OS = assay: Inhibition of cell proliferation of human U2OS cells over-expressing DDR1
[6] = molecular target: T1, Discoidin domain-containing receptor 2; assay: Inhibition of human DDR2 expressed in HEK293 cells assessed as reduction in collagen-2-induced DDR2 phosphorylation; format: cell-based
[7] = molecular target: T1, Discoidin domain-containing receptor 2; assay: Inhibition of human DDR2 expressed in HEK293 cells assessed as reduction in collagen-1-induced DDR2 tyrosine phosphorylation pre-incubated for 30 mins by immunoblotting method; format: cell-based

SMILES: Oc1cccc(Nc2ccnc3cc(-c4cccc(CN5CCOCC5)c4)sc23)c1
IC50 [1]: 6 nM
IC50 [2]: 145 nM

SMILES: CNC(=O)c1cc(Oc2ccc(CNC(=O)Nc3cc(Cl)ccc3OC)cc2C)ccn1
IC50 [6]: 30 nM

SMILES: Cn1cc(C(F)(F)F)cc(NC(=O)NCc2ccc(Oc3ccnc4c3CNC(=O)N4)cc2)c1=O
IC50 [6]: 15 nM

SMILES: Cc1c2oc3c(C)ccc(C(=O)N[C@@H]4C(=O)N[C@H](C(C)C)C(=O)N5CCC[C@H]5C(=O)N(C)CC(=O)N(C)[C@@H](C(C)C)C(=O)O[C@@H]4C)c3nc-2c(C(=O)N[C@@H]2C(=O)N[C@H](C(C)C)C(=O)N3CCC[C@H]3C(=O)N(C)CC(=O)N(C)[C@@H](C(C)C)C(=O)O[C@@H]2C)c(N)c1=O [DACTINOMYCIN] (I: T[dV]P[Sar][NMeV] / II: T[dV]P[Sar][NMeV]; ester I:1-I:C, II:1-II:C; linker I:N-II:N via Actinocin(9to1))
IC50 [7]: 9000 nM

Other lines, results leading:

Kd [3]: 0.6 nM
SMILES: CCc1ccc(C(=O)Nc2cc(CN3CCN(C)CC3)cc(C(F)(F)F)c2)cc1C#Cc1cnc2ccnn2c1

IC50 [4]: 47 nM
IC50 [5]: 9 nM
SMILES: CCN1CCN(Cc2ccc(C(=O)Nc3ccc(C)c(NCc4cnc5[nH]ccc5c4OC)c3)cc2C(F)(F)F)CC1

IC50 (U2OS): 440 nM
SMILES: CCS(=O)(=O)c1ccc(Cl)cc1CNC(=O)c1ccc(CN2CCN(C)CC2)c(C(F)(F)F)c1
